In series [1] the test system is rats with permanent ligation of bilateral common carotid arteries (2VO). Put plainly: Chronic cerebral ischemia model in rats with permanent ligation of bilateral common carotid arteries (2VO). Type of series: in vivo. The source says:
After obtaining the active molecules that can promote the expression of VEGF-A mRNA in the animal model of inflammatory angiogenesis, a rat model of cerebral infarction was used for further verification. Following the method as described in Longa, E. Z., Longa, E. Z., Weinstein, P. R., Carlson, S. & Commin, R. Reversible middle cerebral artery occlusion without craniectomy in rats. [J]. Stroke, 1989. 1: 84-91, an acute cerebral infarction model was established in rats with middle cerebral artery occlusion (MCAO); and following the method as described in C. dela Torre, T. Fortin, G. A. S. Park, K. S. Butler, P. Kozlowski, B. A. Pappas, H. de Socarraz, J. K. Saunders and M. T. Richard. [J]. Brain Research, 1992. 582:186-195, a chronic cerebral ischemia model was established in rats with permanent ligation of bilateral common carotid arteries (2VO). The inhibition on cerebral infarction and neuroprotection for brain injury of the active molecules screened in Effect Example 2 were verified.
In the later period of the present invention, a chronic cerebral ischemia model was established in rats with permanent ligation of bilateral common carotid arteries (2VO). TG-028 (5 mg/kg) was administered to 5 rats in each group daily by intraperitoneal injection for 3 weeks. The effects of TG-028 and the control drug Edaravone (40 mg/kg) in the rat model of chronic cerebral ischemia were observed.
3 weeks after the establishment of the rat model of 2VO chronic cerebral ischemia, the Morris water maze experiment was performed on the test rats to determine the effects of drugs on animal learning and memory. The test rats were subjected to ambient positioning and memory training for 5 days. On Day 5 of the training, a positioning navigation experiment was carried out, and the duration for each group of rats from the time of entering the water from different water entry points facing the pool wall to the time of finding the platform, that is, the escape incubation period, was recorded. On Day 6, the platform was removed and a space exploration experiment was carried out. The swimming time of the rats in the target quadrant, the dwell time in the target quadrant, the distance in the target quadrant, and the number of passes through the platform were recorded in 120 s from the time of entering water from a quadrant opposing the target quadrant. The results of the water maze positioning and navigation experiment are shown in FIG. 8 (where Sham is a sham operation group).
After permanent ligation of the bilateral common carotid arteries, a 5-day positioning training was carried out, and […] Morris water maze space exploration experiment was performed after the training.

Series [2] in a line: Acute toxicity test of TG-028. It is filed as in vivo. The protocol: In addition, an acute toxicity test of TG-028 was conducted.
In series [3] the test system is HUVEC-12 endothelial cells. Kind of series: Tubule formation of HUVEC-12 endothelial cells (Matrigel). It is filed as cell-based, Human. As to the method:
The experiment included seven groups. In Group 1, HUVEC-12 endothelial cells (purchased from Shanghai RongChuang Biotech Co., Ltd.) were treated directly with simple DMEM medium (Gibcol, Shanghai) containing 10% FBS (SERANA, Germany) (control). In Group 2, the endothelial cells were treated with the supernatant obtained 24 h after macrophages were cultured with DMEM medium containing 10% FBS (s-control). In Group 3, the endothelial cells cultured with DMEM medium containing 10% FBS were treated directly with TG-028 (TG-028, 10 μM). In Group 4, the endothelial cells were treated with the supernatant obtained after macrophages cultured with DMEM medium containing 10% FBS were treated and co-incubated with TG-028 for 24 h (s-TG-028, […]). In Group 5, the endothelial cells cultured with DMEM medium containing 10% FBS were treated directly with Cpd-18 (Salvianolate) (cpd-18, 10 μM). In Group 6, the endothelial cells were treated with the supernatant obtained after macrophages cultured with DMEM medium containing 10% FBS were treated and co-incubated with Cpd-18 (Salvianolate, 10 μM) for 24 h (s-cpd18). In Group 7, the endothelial cells cultured with DMEM medium containing 10% FBS were treated directly with VEGFD (Recombinant Human VEGF165, 10 ng/mL).
A 96-well plate and sterile yellow pipette tip were stored overnight in a refrigerator at −20° C. The packed Matrigel was thawed overnight in a refrigerator at 4° C. before the experiment. On the following day, the Matrigel thawed was centrifuged for a few minutes. 60 μL per well of the pre-cooled Matrigel was added to a 96-well plate in an ice bath on a ultra-clean bench, and then allowed to stand in an incubator for 1 h. After Matrigel was solidified, HUVEC-12 cells in logarithmic growth phase were taken and adjusted for the cell density. The cells were well mixed with each group of medium at a density of 5×10^4 cells/well and inoculated into a 96-well plate. […] The tube-like structure was analyzed by ImageJ image-analysis software, and the tube formation ability was evaluated using number of master junction as a quantitative index.

From patent US11325937B2, “Glycoside compound and preparation method therefor, composition, application, and intermediate” (SHANGHAI HUTCHISON PHARMACEUTICALS LIMITED, priority 2018, dated 2022) come the findings set out here.

`COc1ccc(CCCCO[C@@H]2O[C@H](CO)[C@@H](O)[C@H](O)[C@H]2O)cc1` [TG-028]: in series [1] (3 weeks after chronic cerebral ischemia, compared with 2VO+NaCl, FIG. 10), the “HE staining and Nissl staining of brain sections, hippocampal CA3 neurons (in words)” value is “neatly and densely arranged”. Also, the “Morris water maze positioning and navigation: escape incubation period and total distance (in words)” value in series [1] (TG-028 5 mg/kg, Edaravone 40 mg/kg, 3 weeks of administration, FIG. 8) is reported as “comparable effect”. Besides, the “Morris water maze space exploration: number of passes through the platform compared with 2VO+NaCl group” value in series [1] (TG-028 5 mg/kg, Edaravone 40 mg/kg, 3 weeks, FIG. 9) is given as “increases significantly”. Moreover, the “change in body weight compared with sham operation group (in words)” value in series [1] (TG-028 5 mg/kg, Edaravone 40 mg/kg, i.p. daily, after 1 week, FIG. 7) is “no difference in weight change between the treatment group with TG-028 and the sham operation group”. Besides, the “therapeutic index LD50/ED50” value in series [2] (616.59/2.61) came to 236. Also, the 50% lethal dose (LD50) in series [2] (in vivo, acute toxicity test) worked out at 617 mg/kg. Also, the “effect on tube formation of endothelial cells (in words)” value is given as “comparable effect on the tube formation of endothelial cells as VEGF” in series [3] (HUVEC-12 treated with supernatant of macrophages co-incubated 24 h with compound, 10 μM (s- groups)) and “significant effect on the tube formation of endothelial cells” in series [3] (direct treatment of HUVEC-12, 3 h, compounds 10 μM, VEGF165 10 ng/mL, vs control medium).

Broadly, the LD50 is the dose expected to kill half of the subjects tested.
